What was measured:
Human dermal fibroblasts [1] = test: Western blot analysis of protein levels of ECM components after atRA treatment; format: cell-based; details: fold induction (+) or suppression (−) vs control; 10^-7 M, 24 hours
Method: (§1) Human dermal fibroblasts were grown in DMEM cell culture media containing 10% fetal bovine serum and 1% penicillin/streptomycin (Invitrogen). For all experiments, third-passage fibroblasts were used one day after reaching confluence. […] After 24 hour treatment RNA and protein was isolated and analyzed for the expression of components of ECM and transcriptional regulators.
Cells were lysed in Cell Disruption Buffer supplied with the Paris kit (Ambion) and protein concentration was determined using Bradford reagent (Pierce). Proteins were separated on 10% SDS-PAAG and transferred into the PVDF membrane (Biorad). […] Signal was detected using ECL reagent (Pierce).

[2] = system: skin fibroblasts from 30 individuals; test: Combined score of expression stimulation of 5 genes in fibroblast isolates (FIG. 1); format: cell-based, human; details: 24 hour treatment, atRA 10^-7 M, Matrixyl 1 μM, KappaElastin 1 μM
Method: as §1
(§2) Total RNA from various human tissues was purified using RNAwiz (Ambion, USA) and subjected to subsequent DNase I treatment using the DNA-Free kit (Ambion). Total RNA from cancer cells was purified by using 4PCRmini kit (Ambion). First-strand cDNAs were synthesized with Superscript III reverse transcriptase (Invitrogen, USA) and 5 μg of total RNA using oligo d(T) priming in a final reaction volume of 50 μL
The cDNA was amplified by PCR using the 2.5 U Hot-Firepol (Solis BioDyne, Estonia) and buffer Yellow (Naxo, Estonia). Reaction was performed in a 10 ul volume, using 0.5 ul cDNA as a template. Following primer sets were designed for this study:
The combined score of expression stimulation of 5 genes was calculated and blotted for each fibroblast isolate. […] This biological variation provides a good biological rational to use molecular diagnostics for matching cosmetics product and skin cells of specific individual (personalized cosmetics).

Human dermal fibroblasts [3] = test: RT-PCR analysis of mRNA levels of ECM components after atRA treatment; format: cell-based; details: fold induction (+) or suppression (−) vs control; 10^-7 M, 24 hours
Method: as §1, §2
The cDNA was amplified by PCR using the 2.5 U Hot-Firepol (Solis BioDyne, Estonia) and buffer Yellow (Naxo, Estonia). Reaction was performed in a 10 ul volume, using 0.5 ul cDNA as a template. Following primer sets (Table 21) were designed for this study:
The thermal cycling protocols were as follows: initial denaturation of template DNA and heat-activation of polymerase (15 min at 95° C.) followed by 40 cycles denaturation (30 sec at 95° C.) annealing (58° C.) and extension (90 sec). PCR products were analysed on a 1% agarose gel. For sequencing, PCR reactions were purified using PCR purification kit (Qiagen, USA) and subcloned into TOPO TA cloning vector. Fragments were sequenced at GATC Biotech sequencing services (Germany).

[4] = system: dermal fibroblasts isolated from 17 individuals; test: Real time RT-PCR of ECM components, nuclear hormone receptors and coregulators in fibroblasts from 17 individuals; format: cell-based, human
Method: Total RNA was extracted from cells using RNA aqueous kit (Ambion, USA). First-strand cDNAs were synthesized with Superscript III reverse transcriptase (Invitrogen, USA) and 1 μg of total RNA using oligo d(T) priming in a final reaction volume of 40 μL.
Levels of specific mRNAs were measured by real-time RT-PCR using Platinum SYBR Green qPCR SuperMix UDG (Invitrogen) according the protocol on the LightCycler 2.0 (Roche, US). The cycling program steps were: for one cycle 50° C. 2 min, for one cycle 95° C. 2 min and for 45 cycles: 95° C. 10 s, 60° C. 10 s, 72° C. 10 s. All samples were run in triplicates. Results were analyzed with the comparative Ct method (from Applied Biosystems manual; Livak and Schmittgen, 2001). Every sample was normalized for the housekeeping gene GAPDH. Transcript levels in the atRA and TGFb1 treated samples were compared to control samples.

[5] = fibroblasts from 17 individuals, 1 μM, 24 hours

CC1=C(/C=C/C(C)=C/C=C/C(C)=C/C(=O)O)C(C)(C)CCC1 [all trans retinoic acid, all-trans retinoic acid]
COL1A1 protein level (Human dermal fibroblasts [1]): 2 fold | COL1A2 protein level (Human dermal fibroblasts [1]): 2 fold | COL2A1 protein level (Human dermal fibroblasts [1]): 3 fold | COL3A1 protein level (Human dermal fibroblasts [1]): 2 fold | COL4A1 protein level (Human dermal fibroblasts [1]): 1 fold | COL4A2 protein level (Human dermal fibroblasts [1]): 1 fold | COL4A3 protein level (Human dermal fibroblasts [1]): 1 fold | COL4A4 protein level (Human dermal fibroblasts [1]): 1 fold | COL5A1 protein level (Human dermal fibroblasts [1]): 1 fold | Elastin ELN protein level (Human dermal fibroblasts [1]): 2 fold | Lysyl oxidase protein level (Human dermal fibroblasts [1]): 3 fold | MMP2 protein level (Human dermal fibroblasts [1]): 2 fold | MMP-11 protein level (Human dermal fibroblasts [1]): 3 fold | decorin protein level (Human dermal fibroblasts [1]): 4 fold | combined score of expression stimulation of 5 genes (COL1A1, COL2A1, elastin, proteoglycan, TIMP1) per fibroblast isolate [2]: 3 groups of fibroblasts that have different response | COL1A1 mRNA level (Human dermal fibroblasts [3]): 2 fold | COL1A2 mRNA level (Human dermal fibroblasts [3]): 4 fold | COL2A1 mRNA level (Human dermal fibroblasts [3]): 5 fold | COL3A1 mRNA level (Human dermal fibroblasts [3]): 2 fold | COL4A1 mRNA level (Human dermal fibroblasts [3]): 1 fold | COL4A2 mRNA level (Human dermal fibroblasts [3]): 3 fold | COL4A3 mRNA level (Human dermal fibroblasts [3]): 2 fold | COL4A4 mRNA level (Human dermal fibroblasts [3]): 1 fold | COL7A1 mRNA level (Human dermal fibroblasts [3]): 2 fold | Elastin ELN mRNA level (Human dermal fibroblasts [3]): 4 fold | FBLN5 mRNA level (Human dermal fibroblasts [3]): 2 fold | FN 1 mRNA level (Human dermal fibroblasts [3]): 1 fold | Fibrillin-1 mRNA level (Human dermal fibroblasts [3]): 1 fold | Fibrillin-2 mRNA level (Human dermal fibroblasts [3]): 1 fold | Fibulin-2 mRNA level (Human dermal fibroblasts [3]): 3 fold | Lumican mRNA level (Human dermal fibroblasts [3]): 1 fold | Lysyl oxidase mRNA level (Human dermal fibroblasts [3]): 8 fold | MMP2 mRNA level (Human dermal fibroblasts [3]): 2 fold | MMP7 mRNA level (Human dermal fibroblasts [3]): 2 fold | MMP9 mRNA level (Human dermal fibroblasts [3]): 2 fold | MMP12 mRNA level (Human dermal fibroblasts [3]): 2 fold | MMP13 mRNA level (Human dermal fibroblasts [3]): 5 fold | MMP19 mRNA level (Human dermal fibroblasts [3]): 1 fold | MMP20 mRNA level (Human dermal fibroblasts [3]): 1 fold | MMP-11 mRNA level (Human dermal fibroblasts [3]): 7 fold | TIMP1 mRNA level (Human dermal fibroblasts [3]): 2 fold | TIMP3 mRNA level (Human dermal fibroblasts [3]): 3 fold | TIMP4 mRNA level (Human dermal fibroblasts [3]): 1 fold | aggrecan mRNA level (Human dermal fibroblasts [3]): 1 fold | decorin mRNA level (Human dermal fibroblasts [3]): 6 fold | fibromodulin mRNA level (Human dermal fibroblasts [3]): 1 fold | variation between individuals of effect on expression of nuclear hormone receptors, compared with co-regulators ([4]; cells treated with atRA, 17 individuals): less variation | CBP expression in RA treatment compared to control, from-to between individuals [4, 5]: (from −2.15 to 3.17) fold | COL1A1 expression in RA treatment compared to control, from-to between individuals [4, 5]: (from −6.25 to 3.25) fold | COL1A2 expression in RA treatment compared to control, from-to between individuals [4, 5]: (from −3.13 to 1.83) fold | COL3A1 expression in RA treatment compared to control, from-to between individuals [4, 5]: (from −2.28 to 2.89) fold | COL4A1 expression in RA treatment compared to control, from-to between individuals [4, 5]: (from −3.97 to 2.18) fold | COL5A1 expression in RA treatment compared to control, from-to between individuals [4, 5]: (from −4.76 to 2.39) fold | COL5A2 expression in RA treatment compared to control, from-to between individuals [4, 5]: (from −1.41 to 2.94) fold | CTGF expression in RA treatment compared to control, from-to between individuals [4, 5]: (from −2.4 to 2.64) fold | ELN expression in RA treatment compared to control, from-to between individuals [4, 5]: (from −2.44 to 3.02) fold | FN 1 transcr.v.1 expression in RA treatment compared to control, from-to between individuals [4, 5]: (from −3.63 to 1.14) fold | Individual variation of gene expression in RA treatment: CBP [4, 5]: 5.32 fold | Individual variation of gene expression in RA treatment: COL1A1 [4, 5]: 9.5 fold | Individual variation of gene expression in RA treatment: COL1A2 [4, 5]: 4.96 fold | Individual variation of gene expression in RA treatment: COL3A1 [4, 5]: 5.17 fold | Individual variation of gene expression in RA treatment: COL4A1 [4, 5]: 6.15 fold | Individual variation of gene expression in RA treatment: COL4A4 [4, 5]: 1.63 fold | Individual variation of gene expression in RA treatment: COL5A1 [4, 5]: 7.15 fold | Individual variation of gene expression in RA treatment: COL5A2 [4, 5]: 4.35 fold | Individual variation of gene expression in RA treatment: CTGF [4, 5]: 5.04 fold | Individual variation of gene expression in RA treatment: ELN [4, 5]: 5.46 fold | Individual variation of gene expression in RA treatment: FN 1 transcr.v.1 [4, 5]: 4.77 fold | Individual variation of gene expression in RA treatment: MMP1, collagenase 1 [4, 5]: 7.09 fold | Individual variation of gene expression in RA treatment: MMP2 gelatinase [4, 5]: 5.05 fold | Individual variation of gene expression in RA treatment: MMP3 stromelysin [4, 5]: 6.4 fold | Individual variation of gene expression in RA treatment: MMP7 [4, 5]: 16.46 fold | Individual variation of gene expression in RA treatment: MMP10, stromelysin 2 [4, 5]: 12 fold | Individual variation of gene expression in RA treatment: MMP19 [4, 5]: 3.41 fold | Individual variation of gene expression in RA treatment: NCOA1 [4, 5]: 5.68 fold | Individual variation of gene expression in RA treatment: NCOA2 [4, 5]: 5.63 fold | Individual variation of gene expression in RA treatment: NCOA3 [4, 5]: 6.16 fold | Individual variation of gene expression in RA treatment: NCOA5 [4, 5]: 3.1 fold | Individual variation of gene expression in RA treatment: NCOA6 [4, 5]: 3.43 fold | Individual variation of gene expression in RA treatment: NCOA7 [4, 5]: 4.44 fold | Individual variation of gene expression in RA treatment: NCOR1 [4, 5]: 4.2 fold | Individual variation of gene expression in RA treatment: PC4 [4, 5]: 3.57 fold | Individual variation of gene expression in RA treatment: PPARG [4, 5]: 4.59 fold | Individual variation of gene expression in RA treatment: RARA [4, 5]: 4.44 fold | Individual variation of gene expression in RA treatment: RARG [4, 5]: 3.37 fold | Individual variation of gene expression in RA treatment: RXRA [4, 5]: 4.34 fold | Individual variation of gene expression in RA treatment: RXRG [4, 5]: 4.01 fold | Individual variation of gene expression in RA treatment: TIMP1 [4, 5]: 4.21 fold | MMP1, collagenase 1 expression in RA treatment compared to control, from-to between individuals [4, 5]: (from −3.38 to 3.71) fold | MMP2 gelatinase expression in RA treatment compared to control, from-to between individuals [4, 5]: (from −2.7 to 2.35) fold | MMP3 stromelysin expression in RA treatment compared to control, from-to between individuals [4, 5]: (from −3.73 to 2.67) fold | MMP7 expression in RA treatment compared to control, from-to between individuals [4, 5]: (from −14.77 to 1.69) fold | MMP10, stromelysin 2 expression in RA treatment compared to control, from-to between individuals [4, 5]: (from −5.15 to 6.84) fold | MMP19 expression in RA treatment compared to control, from-to between individuals [4, 5]: (from −2.4 to 1.01) fold | NCOA1 expression in RA treatment compared to control, from-to between individuals [4, 5]: (from −2.99 to 2.69) fold | NCOA2 expression in RA treatment compared to control, from-to between individuals [4, 5]: (from −1.95 to 3.68) fold | NCOA3 expression in RA treatment compared to control, from-to between individuals [4, 5]: (from −2.02 to 4.14) fold | NCOA5 expression in RA treatment compared to control, from-to between individuals [4, 5]: (from −1.25 to 1.85) fold | NCOA6 expression in RA treatment compared to control, from-to between individuals [4, 5]: (from −1.44 to 1.99) fold | NCOA7 expression in RA treatment compared to control, from-to between individuals [4, 5]: (from −1.85 to 2.59) fold | NCOR1 expression in RA treatment compared to control, from-to between individuals [4, 5]: (from −2.23 to 1.97) fold | PC4 expression in RA treatment compared to control, from-to between individuals [4, 5]: (from −1.8 to 1.77) fold | PPARG expression in RA treatment compared to control, from-to between individuals [4, 5]: (from −1.64 to 2.95) fold | RARA expression in RA treatment compared to control, from-to between individuals [4, 5]: (from −1.53 to 2.91) fold | RARG expression in RA treatment compared to control, from-to between individuals [4, 5]: (from −1.45 to 1.92) fold | RXRA expression in RA treatment compared to control, from-to between individuals [4, 5]: (from −1.75 to 2.59) fold | RXRG expression in RA treatment compared to control, from-to between individuals [4, 5]: (from −2.02 to 1.99) fold | induced or repressed expression of different genes (Col1A1, Col4A1, Elastin, MMP1, MMP7) ([4]; in different fibroblast isolates, 17 individuals, 1 μM, 24 hours): up to 8 fold | variation between individual fibroblasts of expression of coactivators NCOA1, NCOA2 and NCOA3 ([4]; in response to atRA, 17 individuals): highest variation
